pEC50: −log10 of the molar value.
Columns and labels:
Assay type in all cases: cell-based
[1] = test system: HCV 1a RLuc cells (dicistronic genotype 1a H77 replicon, RLuc reporter); assay: microbe, parasite or virus in culture; details: Hepatitis C virus, genotype 1a replicon; read-out: 1a
In short: (§1)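 Renilla luciferase HCV replicon cells: dicistronic 1b Con1, 1a H77 or 2a JFH-1 replicons, or a JFH-1 chimera carrying J6 NS5A (M31 present). Compound in DMSO serial dilutions, 72 h incubation, then lysis and luciferase read. EC50 by non-linear regression.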

[2] = test system: HCV 1b RLuc cells (dicistronic genotype 1b Con1 replicon, RLuc reporter); assay: microbe, parasite or virus in culture; details: Hepatitis C virus, read-out: 1b (nM)
In short: as §1

[3] = test system: HCV 2a JFH-1 Rluc cells (dicistronic genotype 2a JFH-1 replicon, RLuc reporter); assay: microbe, parasite or virus in culture; details: Hepatitis C virus, genotype 2a JFH-1 replicon; read-out: 2a JFH
In short: as §1

[4] = test system: HCV 2b Rluc cells (NS5A chimeric genotype 2a JFH-1 replicon with genotype 2b MD2b-1 NS5A gene, M31 present); assay: microbe, parasite or virus in culture; details: Hepatitis C virus, read-out: 2b
In short: (§2)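 Replicon cells stably carrying the listed RLuc-encoding dicistronic replicons were seeded and treated with DMSO serial dilutions of compound (10 mM stocks) diluted into culture medium. After 72 h, cells were lysed and Renilla luciferase activity measured. EC50 was derived by non-linear regression.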

[5] = test system: HCV 3a RLuc cells (NS5A chimeric genotype 1b Con1 replicon with consensus genotype 3a NS5A gene); assay: microbe, parasite or virus in culture; details: Hepatitis C virus, read-out: 3a, genotype 3a replicon
In short: as §2

[6] = test system: HCV 4a Rluc cells (NS5A chimeric genotype 1b Con1 replicon with genotype 4a NS5A gene); assay: microbe, parasite or virus in culture; details: Hepatitis C virus, read-out: 4a
In short: as §2

[7] = test system: HCV 2a Rluc cells (NS5A chimeric genotype 2a JFH-1 replicon with genotype 2a J6 strain NS5A gene, M31 present); assay: HCV replicon reporter assay, genotype 2a J6 (M31 present); details: Hepatitis C virus, read-out: 2a J6
In short: as §1

Row | SMILES | pEC50 [1] | EC50 [2] [nM] | pEC50 [3] | pEC50 [4] | pEC50 [5] | pEC50 [6] | pEC50 [7]
1 | CN(C)CC(=O)N[C@@H](C(=O)N1CCC[C@H]1c1ncc(-c2cc3c4c(c2)OCc2cc(-c5cnc([C@@H]6CCCN6C(=O)[C@H](NC(=O)CN(C)C)c6ccccc6)[nH]5)cc(c2-4)OC3)[nH]1)c1ccccc1 [Example 462] | 7.36 to 9.00 | 8.76 | 9.00 to 12.00 | 7.36 to 9.00 | 9.00 to 12.00 | 8.30 to 9.00 | 7.36 to 9.00
2 | O=C(CC1CC1)N[C@@H](C(=O)N1CCC[C@H]1c1ncc(-c2cc3c4c(c2)OCc2cc(-c5cnc([C@@H]6CCCN6C(=O)[C@H](NC(=O)CC6CC6)c6ccccc6)[nH]5)cc(c2-4)OC3)[nH]1)c1ccccc1 [Example 465] | 9.00 to 12.00 | 0.176 | 9.00 to 12.00 | 9.00 to 12.00 | 9.00 to 12.00 | 9.00 to 12.00 | 9.00 to 12.00
3 | CC(C)(C)C(=O)N[C@@H](C(=O)N1CCC[C@H]1c1ncc(-c2cc3c4c(c2)OCc2cc(-c5cnc([C@@H]6CCCN6C(=O)[C@H](NC(=O)C(C)(C)C)c6ccccc6)[nH]5)cc(c2-4)OC3)[nH]1)c1ccccc1 [Example 466] | 9.00 to 12.00 | 0.042 | 9.00 to 12.00 | 7.36 to 9.00 | 9.00 to 12.00 | 9.00 to 12.00 | 7.36 to 9.00
4 | CC(C)C(=O)N[C@@H](C(=O)N1CCC[C@H]1c1ncc(-c2cc3c4c(c2)OCc2cc(-c5cnc([C@@H]6CCCN6C(=O)[C@H](NC(=O)C(C)C)c6ccccc6)[nH]5)cc(c2-4)OC3)[nH]1)c1ccccc1 [Example 468] | 9.00 to 12.00 | 0.113 | 9.00 to 12.00 | 9.00 to 12.00 | 9.00 to 12.00 | 9.00 to 12.00 | 9.00 to 12.00
5 | O=C(N[C@@H](C(=O)N1CCC[C@H]1c1ncc(-c2cc3c4c(c2)OCc2cc(-c5cnc([C@@H]6CCCN6C(=O)[C@H](NC(=O)c6cccnc6)c6ccccc6)[nH]5)cc(c2-4)OC3)[nH]1)c1ccccc1)c1cccnc1 [Example 469] | 9.00 to 12.00 | 0.752 | 9.00 to 12.00 | 9.00 to 12.00 | 9.00 to 12.00 | 9.00 to 12.00 | 9.00 to 12.00
6 | CCCC(=O)N[C@@H](C(=O)N1CCC[C@H]1c1ncc(-c2cc3c4c(c2)OCc2cc(-c5cnc([C@@H]6CCCN6C(=O)[C@H](NC(=O)CCC)c6ccccc6)[nH]5)cc(c2-4)OC3)[nH]1)c1ccccc1 [Example 470] | 9.00 to 12.00 | 0.148 | 9.00 to 12.00 | 9.00 to 12.00 | 9.00 to 12.00 | 9.00 to 12.00 | 9.00 to 12.00
7 | COC[C@H]1C[C@@H](c2nc3ccc4cc(-c5ccc6c(ccc7nc([C@@H]8C[C@H]9C[C@H]9N8C(=O)[C@@H](NC(=O)OC)C(C)C)[nH]c76)c5)ccc4c3[nH]2)N(C(=O)[C@@H](NC(=O)OC)C(C)C)C1 [Example 471] | 9.00 to 12.00 | 0.015 | 9.00 to 12.00 | 7.36 to 9.00 | 9.00 to 12.00 | 9.00 to 12.00 | 9.00 to 12.00
8 | COC(=O)N[C@H](C(=O)N1CCC[C@H]1c1nc(Br)c(-c2cc3c4c(c2)OCc2cc(-c5[nH]c([C@@H]6CCCN6C(=O)[C@@H](NC(=O)OC)C(C)C)nc5Br)cc(c2-4)OC3)[nH]1)C(C)C [Example 473] | 9.00 to 12.00 | 0.015 | 9.00 to 12.00 | 7.36 to 9.00 | 9.00 to 12.00 | 9.00 to 12.00 | 7.36 to 9.00
9 | COC[C@H]1C[C@@H](c2nc3ccc4cc(-c5ccc(-c6cnc([C@@H]7CCCN7C(=O)[C@H](NC(=O)OC)c7ccccc7)[nH]6)cc5OCC(F)(F)F)ccc4c3[nH]2)N(C(=O)[C@@H](NC(=O)OC)C(C)C)C1 [Example 474] | 9.00 to 12.00 | 0.025 | 9.00 to 12.00 | 7.36 to 9.00 | 9.00 to 12.00 | 9.00 to 12.00 | 7.36 to 9.00
10 | COC[C@H]1C[C@@H](c2nc3ccc4cc(-c5ccc(-c6cnc([C@@H]7CCCN7C(=O)[C@H](NC(=O)CN(C)C)c7ccccc7)[nH]6)cc5)ccc4c3[nH]2)N(C(=O)[C@@H](NC(=O)OC)C(C)C)C1 [Example 476] | 9.00 to 12.00 | 0.099 | 9.00 to 12.00 | 9.00 to 12.00 | 9.00 to 12.00 | 9.00 to 12.00 | 9.00 to 12.00
